Measurements from patent US7419961B2, “9a-azalides with anti-inflammatory activity” (Zambon S.p.A., priority 2002, dated 2008).
Converted amounts (≈) assume the structure as drawn.

Assays:
[1] = tested on: mouse ear edema induced by PMA (phorbol myristate acetate); test: Acute contact dermatitis: TPA-induced auricular edema; format: in vivo, CD1 mice; settings: 500 μg/ear topical in TPDS, 30 min before TPA 0.01%, sacrifice 6 h later
Experimental: Groups of 5-6 CD1 mice (18-24 g) were used. • Administration of the Compounds All the macrolide derivatives were dissolved in Trans-phase Delivery System (TPDS), a vehicle containing benzyl alcohol 10%, acetone 40% and isopropanol 50%. 15 microliters of the compounds (500 μg), dissolved in TPDS, were applied topically to the internal surface of one ear; 30 minutes later, 12 microliters of a solution of tetradecanoyl phorbol acetate (TPA) at a concentration of 0.01% dissolved in acetone, were applied to the same area. Six hours later, the animals were sacrificed by inhalation of CO2. • Evaluation of the Results Two methods were used for assessing the auricular edema: • a) Weighing a defined portion of auricular pinna. • b) Measurement of auricular thickness using precision spring calipers. The degree of edema was calculated by subtracting the weight or the thickness of the untreated ear from that of the treated contralateral ear. To determine the degree of remission of the edema, the difference (weight or thickness) of the groups treated with TPA+macrolides relative to those treated with just TPA was compared. The activity of the macrolides was measured using the modified method of Zunic et al. (1998): MDL (Lysyl) GDP, a non-toxil muramyl dipeptide derivative inhibits cytokine production by activated macrophages and protects mice from phorbol ester- and oxazolone-induced inflammation (J. Invest. Dermatol., 111 (1), 77-82). The data relating to erythromycin and azithromycin refer to treatment in a single dose at 500 μg/ear.

[2] = tested on: accumulation of neutrophils in the rat lung induced by LPS; test: LPS-induced pulmonary inflammation in the rat; format: in vivo; settings: oral single dose 100, 40 and 10 μmol/kg one hour before LPS 0.4 mg/kg endotracheally; 20 h; erythromycin: single oral dose 130 μmol/kg
Experimental: The rats were given a single dose of 0.4 mg/kg of LPS (E. coli, serotype 026:6) endotracheally, by the trans-oral route. Tracheal instillation was carried out under halothane anesthesia and 20 hours after the endotracheal administration of LPS/saline solution the animals were sacrificed by urethane overdose. • Washing
The lungs were washed with four aliquots each of 5 ml of saline solution with heparin 10 IU/ml. The cellular suspension was concentrated by low-speed centrifugation and the cellular pellet was suspended. • Cell Count and Differentiation
The total cell count was obtained using a hemocytometer.
The differential count was obtained from cytospin preparations stained with May-Grunwald-Giemsa (Tamaoki J., Tagaya E., Yamawaki I., Sakai N., Nagai A., Konno K., 1995. Effect of erythromycin on endotoxin-induced microvascular leakage in the rat trachea and lungs. Am. J. Respir. Crit. Care Med., 151, 1582-8). The rats received the test compounds orally at a dose of 100, 40 and 10 μmol/kg as a single dose administered orally one hour before exposure to LPS.
The ED/50 value is the dose that caused 50% reduction in the neutrophil count in the bronchial wash fluid.
The result for erythromycin relates to oral treatment in a single dose with 130 μmol/kg.

[3] = tested on: Enterococcus faecalis ATCC 29212; test: Antibiotic activity, MIC in liquid culture medium; format: cell-based; settings: ATCC29212, lowest concentration that completely inhibits visible growth, read-out: Enter. faec. ATCC 29212 MIC
Experimental: (§1) The MIC values were determined in liquid culture medium by the technique described in the “Manual of Clinical Microbiology, 7th edition (1999), American Society for Microbiology”.

[4] = tested on: Streptococcus pyogenes ATCC 19615; test: Antibiotic activity at 128 μg/ml; format: cell-based
Experimental: as §1

[5] = tested on: Staphylococcus aureus ATCC 6538; test: Antibiotic activity at 128 μg/ml; format: cell-based
Experimental: as §1

[6] = tested on: Streptococcus pneumoniae ATCC 49619; test: Antibiotic activity, MIC in liquid culture medium; format: cell-based; settings: ATCC49619, lowest concentration that completely inhibits visible growth, read-out: Str. pneum. ATTC 49619 MIC
Experimental: as §1

[7] = tested on: Staphylococcus aureus ATCC 29213; test: Antibiotic activity, MIC in liquid culture medium; format: cell-based; settings: ATCC29213, lowest concentration that completely inhibits visible growth, read-out: Sta. aureus ATCC 29213 MIC
Experimental: as §1

[8] = method a: weighing a defined portion of auricular pinna

MIC [3] [µg/mL] | Compound | inhibition in vivo at 500 µg/ear [1, 8] [%] | further results
 | CC[C@H]1OC(=O)[C@H](C)[C@@H](O[C@H]2C[C@@](C)(OC)[C@@H](O)[C@H](C)O2)[C@H](C)[C@@H](O[C@@H]2O[C@H](C)C[C@H](N(C)C)[C@H]2O)[C@](C)(O)C[C@@H](C)CN(C)[C@H](C)[C@@H](O)[C@]1(C)O [Azithromycin, reference compound] | 40 | 
> 128 | CC[C@H]1OC(=O)[C@H](C)[C@@H](O)[C@H](C)[C@@H](O[C@@H]2O[C@H](C)C[C@H]([N+](C)(C)[O-])[C@H]2O)C(C)(O)C[C@@H](C)CN(C)[C@H](C)[C@@H](O)[C@]1(C)O (stereo partly drawn) [Compound 1] | 56.7 | ED/50 (dose that caused 50% reduction in the neutrophil count in the bronchial wash fluid) [2]: 10 µmol/kg; Str. pyogen. ATTC 19615 128 (μg/ml) [4]: not active; Sta. aureus ATCC 6538 128 (μg/ml) [5]: not active
 | CC[C@H]1OC(=O)[C@H](C)[C@@H](O)[C@H](C)[C@@H](O[C@@H]2O[C@H](C)C[C@H]([N+](C)(C)[O-])[C@H]2O)C(C)(O)C[C@@H](C)C[N+](C)([O-])[C@H](C)[C@@H](O)[C@]1(C)O (stereo partly drawn) [Compound 2] | 25.3 | 
 | CC[C@H]1OC(=O)[C@H](C)[C@@H](O)[C@H](C)[C@@H](O[C@@H]2O[C@H](C)C=C[C@H]2O)C(C)(O)C[C@@H](C)CN(C)[C@H](C)[C@@H](O)[C@]1(C)O (stereo partly drawn) [Compound 3] | 34.4 | 
 | CC[C@H]1OC(=O)[C@H](C)[C@@H](O)[C@H](C)[C@@H](O[C@@H]2O[C@H](C)CC[C@H]2O)C(C)(O)C[C@@H](C)CN(C)[C@H](C)[C@@H](O)[C@]1(C)O (stereo partly drawn) [Compound 4] | 16.5 | 
 | CC[C@H]1OC(=O)[C@H](C)[C@@H](O)[C@H](C)[C@@H](O[C@@H]2O[C@H](C)C[C@H](N(C)C(C)=O)[C@H]2O)C(C)(O)C[C@@H](C)CN(C)[C@H](C)[C@@H](O)[C@]1(C)O (stereo partly drawn) [Compound 5] | 40.5 | 
64 (≈ 87.6 µM) | CC[C@H]1OC(=O)[C@H](C)[C@@H](O)[C@H](C)[C@@H](O[C@@H]2O[C@H](C)C[C@H](N(C)C)[C@H]2O)C(C)(O)C[C@H](C)CN(CCCNCc2nccs2)[C@H](C)[C@@H](O)[C@]1(C)O (stereo partly drawn) [Compound 6] |  | MIC [6]: 8 µg/mL (≈ 10.9 µM); MIC [7]: 64 µg/mL (≈ 87.6 µM)
 | CC[C@H]1OC(=O)[C@H](C)[C@@H](O)[C@H](C)[C@@H](O[C@@H]2O[C@H](C)C[C@H](N(C)C)[C@H]2O)C(C)(O)C[C@@H](C)CN(CCCNCc2c[nH]cn2)[C@H](C)[C@@H](O)[C@]1(C)O (stereo partly drawn) [Compound 8] | 29.7 | 
> 128 | CC[C@H]1OC(=O)[C@H](C)[C@@H](O)[C@H](C)[C@@H](O[C@@H]2O[C@H](C)C[C@H](N(C)C)[C@H]2O)C(C)(O)C[C@@H](C)CN(CCCNCCCCCCNCc2ccccc2)[C@H](C)[C@@H](O)[C@]1(C)O (stereo partly drawn) [Compound 12] |  | inhibition in vivo at 500 µg/ear ([1]; method b: auricular thickness using precision spring calipers): 39.5%; MIC [6]: 64 µg/mL (≈ 77.7 µM); MIC [7]: > 128 µg/mL
 | CC[C@H]1OC(=O)[C@H](C)[C@@H](O)[C@H](C)[C@@H](O[C@@H]2O[C@H](C)CC[C@H]2O)C(C)(O)C[C@@H](C)CN(CCCNCCNCc2nccs2)[C@H](C)[C@@H](O)[C@]1(C)O (stereo partly drawn) [Compound 13] | 44.7 | 
1 (≈ 1.36 µM) | CC[C@H]1OC(=O)[C@H](C)[C@@H](O[C@H]2C[C@@](C)(OC)[C@@H](O)[C@H](C)O2)[C@H](C)[C@@H](O[C@@H]2O[C@H](C)C[C@H](N(C)C)[C@H]2O)[C@](C)(O)C[C@@H](C)C(=O)[C@H](C)[C@@H](O)[C@]1(C)O [Erythromycin, erythromycin, reference compound] | 42 | ED/50 (dose that caused 50% reduction in the neutrophil count in the bronchial wash fluid) [2]: not active; MIC [6]: 0.12 µg/mL (≈ 0.164 µM); MIC [7]: 0.25 µg/mL (≈ 0.341 µM)
